# Data taken from patent US10239887B2, “Positive allosteric modulators of the muscarinic acetylcholine receptor M4” (Vanderbilt University, priority 2016, dated 2019).
# Structures can show the parent of a compound that is named as a salt.
# Molecular target: T1, human mAChR M4 (Homo sapiens, UniProt P08173)
# T1 sequence (P08173 1-479): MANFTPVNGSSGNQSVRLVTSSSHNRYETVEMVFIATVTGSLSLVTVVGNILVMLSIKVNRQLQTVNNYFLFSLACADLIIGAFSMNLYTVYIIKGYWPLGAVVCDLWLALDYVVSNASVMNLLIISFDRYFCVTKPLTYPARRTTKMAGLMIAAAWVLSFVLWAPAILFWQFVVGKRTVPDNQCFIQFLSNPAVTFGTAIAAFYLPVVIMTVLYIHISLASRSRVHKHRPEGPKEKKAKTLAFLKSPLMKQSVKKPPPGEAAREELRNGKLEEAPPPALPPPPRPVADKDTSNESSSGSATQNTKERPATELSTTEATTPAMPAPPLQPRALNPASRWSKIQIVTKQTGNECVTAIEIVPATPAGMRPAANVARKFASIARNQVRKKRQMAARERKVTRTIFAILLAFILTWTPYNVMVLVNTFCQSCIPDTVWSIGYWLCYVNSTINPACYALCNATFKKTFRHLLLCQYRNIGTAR
# Assay: mAChR M4 cell-based functional assay (calcium flux), human M4
# Settings: Table 10; for EC50: Human M4 EC50 (nM); for Emax / Emax (%): % ACh maximum at 30 μM
# [1] = calcium flux, PAM activity with EC20 acetylcholine
SMILES,EC50 [1],Emax,EC50 (unit μM (bounds)),Emax (%)
"Cc1nc2sc3c(NCc4ccc(-n5ccnc5)cc4)ncnc3c2c(C)c1Cl [Compound 268, 8-chloro-N-[(4-imidazol-1-ylphenyl)methyl]-7,9-dimethyl-pyrido[3′,2′:4,5] thieno[3,2-d]pyrimidin-4-amine dihydrochloride]",3170 nM,31.3%,,
"Cc1nc2sc3c(NCc4ccc(CN5CCOCC5)cc4)ncnc3c2c(C)c1Cl [Compound 269, 8-chloro-7,9-dimethyl-N-[[4-(morpholinomethyl)phenyl]methyl]pyrido [3′,2′:4,5]thieno[3,2-d] pyrimidin-4-amine dihydrochloride]",3570 nM,71.2%,,
"Cc1nc2sc3c(NCc4ccc5c(c4)CC(C)(C)O5)ncnc3c2c(C)c1Cl [Compound 270, 8-chloro-N-[(2,2-dimethyl-3H-benzofuran-5-yl)methyl]-7,9-dimethyl-pyrido[3′,2′:4,5]thieno [3,2-d]pyrimidin-4-amine dihydrochloride]",,22%,> 10000 nM,
"Cc1ncc(CNc2ncnc3c2sc2nc(C)c(Cl)c(C)c23)cn1 [Compound 271, 8-chloro-7,9-dimethyl-N-[(2-methylpyrimidin-5-yl)methyl]pyrido [3′,2′:4,5]thieno[3,2-d] pyrimidin-4-amine dihydrochloride]",,74.7%,> 10000 nM,
"Cc1nc2sc3c(NC4CN(c5ncc(C(F)(F)F)cn5)C4)ncnc3c2c(C)c1Cl [Compound 272, 8-chloro-7,9-dimethyl-N-[1-[5-(trifluoromethyl)pyrimidin-2-yl]azetidin-3-yl]pyrido[3′,2′:4,5] hieno[3,2-d]pyrimidin-4-amine dihydrochloride]",3620 nM,60.6%,,
"Cc1nc2sc3c(NCC4CCOC4)ncnc3c2c(C)c1Cl (centres unmarked) [Compound 273, 8-chloro-7,9-dimethyl-N-(tetrahydrofuran-3-ylmethyl) pyrido[3′,2′:4,5]thieno [3,2-d]pyrimidin-4-amine dihydrochloride]",1840 nM,59.5%,,
"Cc1nc2sc3c(NCc4ccc(C5(O)CCC5)cc4)ncnc3c2c(C)c1Cl [Compound 276, 1-[4-[[(8-chloro-7,9-dimethyl-pyrido [3′,2′:4,5]thieno[3,2-d]pyrimidin-4-yl)amino]methyl]phenyl]cyclobutanol]",,45.3%,> 10000 nM,
"Cc1nc2sc3c(NCc4cccc(C5(O)CCC5)c4)ncnc3c2c(C)c1Cl [Compound 277, 1-[3-[[(8-chloro-7,9-dimethyl-pyrido [3′,2′:4,5]thieno[3,2-d]pyrimidin-4-yl)amino]methyl]phenyl]cyclobutanol]",2320 nM,70.5%,,
"Cc1nc2sc3c(NCc4ccc(C(C)(C)O)c(F)c4)ncnc3c2c(C)c1Cl [Compound 278, 2-[4-[[(8-chloro-7,9-dimethyl-pyrido [3′,2′:4,5]thieno[3,2-d]pyrimidin-4-yl)amino]methyl]-2-fluoro-phenyl] propan-2-ol]",3800 nM,37%,,
"Cc1nc2sc3c(NCc4ccc(C(C)(C)O)cc4F)ncnc3c2c(C)c1Cl [Compound 279, 2-[4-[[(8-chloro-7,9-dimethyl-pyrido [3′,2′:4,5]thieno[3,2-d]pyrimidin-4-yl)amino]methyl]-3-fluoro-phenyl] propan-2-ol]",6020 nM,49.4%,,
"COc1nnc2sc3c(NCc4ccc(C(C)(C)O)cc4)ncnc3c2c1C [Compound 280, 2-[4-[[(3-methoxy-4-methyl-pyrimido [4′,5′:4,5]thieno[2,3-c]pyridazin-8-yl)amino]methyl]phenyl]propan-2-ol]",,86.7%,,
"COc1nnc2sc3c(N4CCCC4)ncnc3c2c1C [Compound 281, 3-methoxy-4-methyl-8-pyrrolidin-1-yl-pyrimido [4′,5′:4,5]thieno[2,3-c] pyridazine]",47.7 nM,117%,,
"COc1nnc2sc3c(NC4CN(c5ncc(C(F)(F)F)cn5)C4)ncnc3c2c1C [Compound 282, 3-methoxy-4-methyl-N-[1-[5-(trifluoromethyl)pyrimidin-2-yl]azetidin-3-yl]pyrimido[4′,5′:4,5]thieno [2,3-c]pyridazin-8-amine]",1140 nM,90.9%,,
"CCNc1ncnc2c1oc1nc(C)c(Cl)c(C)c12 [Compound 287, 8-chloro-N-ethyl-7,9-dimethyl-pyrido[3′,2′:4,5]furo[3,2-d]pyrimidin-4-amine hydrochloride]",1250 nM,40.6%,,
"Cc1nc2oc3c(NCc4cccc(C(C)(C)O)c4)ncnc3c2c(C)c1Cl [Compound 288, 2-[3-[[(8-chloro-7,9-dimethyl-pyrido[3′,2′:4,5]furo[3,2-d]pyrimidin-4-yl)amino]methyl]phenyl]propan-2-ol]",1880 nM,54.4%,,
"Cc1cc(C)c2c(n1)oc1c(NC3CN(c4ncc(F)cn4)C3)ncnc12 [Compound 289, N-[1-(5-fluoropyrimidin-2-yl)azetidin-3-yl]-7,9-dimethyl-pyrido[3′,2′:4,5]furo[3,2-d]pyrimidin-4-amine hydrochloride]",,34.9%,,

SMILES,EC50 [1],Emax,EC50 (unit μM (bounds)),Emax (%)
"Cc1cc(C)c2c(n1)oc1c(NC3CN(c4cc(Cl)ncc4Cl)C3)ncnc12 [Compound 290, N-[1-(2,5-dichloro-4-pyridyl)azetidin-3-yl]-7,9-dimethyl-pyrido[3′,2′:4,5]furo[3,2-d]pyrimidin-4-amine dihydrochloride]",1490 nM,,,49.29%
"Cc1cc(C)c2c(n1)oc1c(NCc3ccc(S(C)(=O)=O)cc3)ncnc12 [Compound 292, 7,9-dimethyl-N-[(4-methylsulfonylphenyl)methyl]pyrido[3′,2′:4,5]furo [3,2-d]pyrimidin-4-amine hydrochloride]",1200 nM,42.5%,,
"Cc1cc(C)c2c(n1)oc1c(NC3CCC3)ncnc12 [Compound 293, N-cyclobutyl-7,9-dimethyl-pyrido[3′,2′:4,5]furo[3,2-d]pyrimidin-4-amine hydrochloride]",1590 nM,,,44.18%
"Cc1cc(C)c2c(n1)oc1c(NC3CC3c3ccc(F)c(F)c3)ncnc12 (centres unmarked) [Compound 294, N-[2-(3,4-difluorophenyl)cyclopropyl]-7,9-dimethyl-pyrido[3′,2′:4,5]furo [3,2-d]pyrimidin-4-amine hydrochloride]",3380 nM,56.3%,,
"Cc1cc(C)c2c(n1)oc1c(NC3CC3)ncnc12 [Compound 295, N-cyclopropyl-7,9-dimethyl-pyrido[3′,2′:4,5]furo[3,2-d]pyrimidin-4-amine hydrochloride]",,,,63.93%
"Cc1cc(C)c2c(n1)oc1c(N3CC4(COC4)C3)ncnc12 [Compound 296, 7,9-dimethyl-4-(2-oxa-6-azaspiro[3.3]heptan-6-yl)pyrido[3′,2′:4,5]furo[3,2-d]pyrimidine]",3370 nM,37.7%,,
"Cc1nnc2oc3c(NC4CN(c5ccc(F)c(F)c5)C4)ncnc3c2c1C [Compound 297, N-[1-(3,4-difluorophenyl)azetidin-3-yl]-3,4-dimethyl-pyrimido[4′,5′:4,5]furo [2,3-c]pyridazin-8-amine]",59.4 nM,73%,,
"Cc1nnc2oc3c(NCc4ccc(C5(O)CCC5)cc4)ncnc3c2c1C [Compound 298, 1-[4-[[(3,4-dimethylpyrimido [4′,5′:4,5]furo[2,3-c]pyridazin-8-yl)amino]methyl]phenyl]cyclobutanol]",862 nM,58.2%,,
"Cc1nnc2oc3c(NCc4ccc(C(C)(C)O)cc4)ncnc3c2c1C [Compound 299, 2-[4-[[(3,4-dimethylpyrimido [4′,5′:4,5]furo[2,3-c]pyridazin-8-yl)amino]methyl]phenyl]propan-2-ol]",2290 nM,61.2%,,
"Cc1nnc2oc3c(NCc4cccc(C5(O)CCC5)c4)ncnc3c2c1C [Compound 300, 1-[3-[[(3,4-dimethylpyrimido [4′,5′:4,5]furo[2,3-c]pyridazin-8-yl)amino]methyl]phenyl]cyclobutanol]",,61.1%,,
"Cc1nnc2oc3c(NCc4cccc(C(C)(C)O)c4)ncnc3c2c1C [Compound 301, 2-[3-[[(3,4-dimethylpyrimido [4′,5′:4,5]furo[2,3-c]pyridazin-8-yl)amino]methyl]phenyl]propan-2-ol]",,63.4%,,
"Cc1nnc2oc3c(NC4CC4)ncnc3c2c1C [Compound 302, N-cyclopropyl-3,4-dimethyl-pyrimido [4′,5′:4,5]furo[2,3-c]pyridazin-8-amine]",1300 nM,66.5%,,
"Cc1nnc2oc3c(NC4CCC4)ncnc3c2c1C [Compound 303, N-cyclobutyl-3,4-dimethyl-pyrimido [4′,5′:4,5]furo[2,3-c]pyridazin-8-amine]",1530 nM,54.8%,,
"Cc1nnc2oc3c(NC4CCCC4)ncnc3c2c1C [Compound 304, N-cyclopentyl-3,4-dimethyl-pyrimido [4′,5′:4,5]furo[2,3-c]pyridazin-8-amine]",818 nM,45.9%,,
"Cc1nnc2oc3c(NC4CC5(COC5)C4)ncnc3c2c1C [Compound 305, 3,4-dimethyl-N-(2-oxaspiro[3.3]heptan-6-yl)pyrimido[4′,5′:4,5] furo[2,3-c]pyridazin-8-amine]",,25.6%,> 10000 nM,
"Cc1nnc2oc3c(NC4CC(F)(F)C4)ncnc3c2c1C [Compound 306, N-(3,3-difluoro-cyclobutyl)-3,4-dimethyl-pyrimido [4′,5′:4,5]furo[2,3-c]pyridazin-8-amine]",1750 nM,57.9%,,
